The source of these data is publication PMC7708056 (2020).

The subject of test [1] is 18GAAA-D1 (NAD+ riboswitch domain 1, WT) (RNA, riboswitch) GGCUUCAACAACCCCGUAGGUGGGGACGAAAGUCAGCGCACCUACUGGAGCC
Nature of the test: ITC. Conditions: 50 mM NaCl, 10 mM MgCl2; for Kd: 50 mM HEPES pH 7.0, 25 °C (Figure S7 legend: 20 °C), apparent.

The test system of test [2] is G36A/G38A/A11Ap domain 1 (RNA, riboswitch, 2-aminopurine at 11) GGCUUCAACAACCCCGUAGGUGGGGACGAAAGUCAACACACCUACUGGAGCC
Nature of the test: 2-aminopurine fluorescence.

Test [3] relates to U11Ap domain 2 (RNA, riboswitch, 2-aminopurine at 11) GGUUUCAACAUCCCCGUUCGGCGCUCGAAAGAGGUGGCCGGACUGAAGCC
Description: 2-aminopurine fluorescence titration. Conditions: 100 mM KCl, 50 mM MgCl2; 50 mM KMOPS pH 7.5, 20 °C, 0.5 μM RNA, apparent.

In test [4] the test system is A11Ap domain 1 (RNA, riboswitch, 2-aminopurine at 11) GGCUUCAACAACCCCGUAGGUGGGGACGAAAGUCAGCGCACCUACUGGAGCC
Description: 2-aminopurine fluorescence titration. Conditions: 100 mM KCl, 50 mM MgCl2; 50 mM KMOPS pH 7.5, 20 °C, 0.5 μM RNA, apparent.

Test [5] relates to 18GAAA-D1 C14G/G36C (RNA, riboswitch) GGCUUCAACAACCGCGUAGGUGGGGACGAAAGUCACCGCACCUACUGGAGCC
Description: ITC. Conditions: 50 mM NaCl, 10 mM MgCl2; 50 mM HEPES pH 7.0, 25 °C; 2 mM ligand stock titrated into 0.1 mM RNA.

Test [6] concerns 18GAAA-D1 A8G (RNA, riboswitch) GGCUUCAGCAACCCCGUAGGUGGGGACGAAAGUCAGCGCACCUACUGGAGCC
Description: ITC. The conditions noted are these: 50 mM NaCl, 10 mM MgCl2; 50 mM HEPES pH 7.0, 25 °C; 2 mM ligand stock titrated into 0.1 mM RNA.

Test [7] concerns 18GAAA-D1 C6U/G47A (RNA, riboswitch) GGCUUUAACAACCCCGUAGGUGGGGACGAAAGUCAGCGCACCUACUAGAGCC
Nature of the test: ITC. Conditions: 50 mM NaCl, 10 mM MgCl2; 50 mM HEPES pH 7.0, 25 °C; 2 mM ligand stock titrated into 0.1 mM RNA.

Test [8] deals with 18GAAA-D1 A35C (RNA, riboswitch) GGCUUCAACAACCCCGUAGGUGGGGACGAAAGUCCGCGCACCUACUGGAGCC
Nature of the test: ITC. Conditions: 50 mM NaCl, 10 mM MgCl2; 50 mM HEPES pH 7.0, 25 °C; 2 mM ligand stock titrated into 0.1 mM RNA.

Test [9] concerns 18GAAA-D1 G38C (RNA, riboswitch) GGCUUCAACAACCCCGUAGGUGGGGACGAAAGUCAGCCCACCUACUGGAGCC
Nature of the test: ITC. Conditions: 50 mM NaCl, 10 mM MgCl2; 50 mM HEPES pH 7.0, 25 °C; 2 mM ligand stock titrated into 0.1 mM RNA.

The test system of test [10] is 18GAAA-D1 A10G (RNA, riboswitch) GGCUUCAACGACCCCGUAGGUGGGGACGAAAGUCAGCGCACCUACUGGAGCC
Nature of the test: ITC. Conditions: 50 mM NaCl, 10 mM MgCl2; 50 mM HEPES pH 7.0, 25 °C; 2 mM ligand stock titrated into 0.1 mM RNA.

In test [11] the test system is 18GAAA-D1 C6G/G47C (RNA, riboswitch) GGCUUGAACAACCCCGUAGGUGGGGACGAAAGUCAGCGCACCUACUCGAGCC
Nature of the test: ITC. Conditions: 50 mM NaCl, 10 mM MgCl2; 50 mM HEPES pH 7.0, 25 °C; 2 mM ligand stock titrated into 0.1 mM RNA.

Test [12] has as its system 18GAAA-D1 C13U/C14U/G36A/G38A (RNA, riboswitch) GGCUUCAACAACUUCGUAGGUGGGGACGAAAGUCAACACACCUACUGGAGCC
Nature of the test: ITC. Conditions: 50 mM NaCl, 10 mM MgCl2; 50 mM HEPES pH 7.0, 25 °C; 2 mM ligand stock titrated into 0.1 mM RNA.

Test [13] has as its system C13U/C14U/G36A/G38A domain 1, Ap variant (RNA, riboswitch, 2-aminopurine (position not given)) GGCUUCAACAACUUCGUAGGUGGGGACGAAAGUCAACACACCUACUGGAGCC
Description: 2-aminopurine fluorescence.

Test [14] relates to 832GAAA-D2 (NAD+ riboswitch domain 2) (RNA, riboswitch) GGUUUCAACAUCCCCGUUCGGCGCUCGAAAGAGGUGGCCGGACUGAAGCC
Description: X-ray crystallography, 2.1 Å. The conditions noted are these: Mg2+.

Test [15] has as its system 18GAAA-D1 G36C (RNA, riboswitch) GGCUUCAACAACCCCGUAGGUGGGGACGAAAGUCACCGCACCUACUGGAGCC
Description: ITC. Conditions: 50 mM NaCl, 10 mM MgCl2; 50 mM HEPES pH 7.0, 25 °C; 2 mM ligand stock titrated into 0.1 mM RNA.

Test [16] has as its system 18GAAA-D1 A8U (RNA, riboswitch) GGCUUCAUCAACCCCGUAGGUGGGGACGAAAGUCAGCGCACCUACUGGAGCC
Nature of the test: ITC. The conditions noted are these: 50 mM NaCl, 10 mM MgCl2; 50 mM HEPES pH 7.0, 25 °C; 2 mM ligand stock titrated into 0.1 mM RNA.

Test [17] deals with 18GAAA-D1 G36C/G38C (RNA, riboswitch) GGCUUCAACAACCCCGUAGGUGGGGACGAAAGUCACCCCACCUACUGGAGCC
Description: ITC. Conditions: 50 mM NaCl, 10 mM MgCl2; 50 mM HEPES pH 7.0, 25 °C; 2 mM ligand stock titrated into 0.1 mM RNA.

Test [18] concerns 18GAAA-D1 G23A/C37U (RNA, riboswitch) GGCUUCAACAACCCCGUAGGUGAGGACGAAAGUCAGUGCACCUACUGGAGCC
Nature of the test: ITC. The conditions noted are these: 50 mM NaCl, 10 mM MgCl2; 50 mM HEPES pH 7.0, 25 °C; 2 mM ligand stock titrated into 0.1 mM RNA.

Test [19] concerns 18GAAA-D1 C13G/G38C (RNA, riboswitch) GGCUUCAACAACGCCGUAGGUGGGGACGAAAGUCAGCCCACCUACUGGAGCC
Description: ITC. Conditions: 50 mM NaCl, 10 mM MgCl2; 50 mM HEPES pH 7.0, 25 °C; 2 mM ligand stock titrated into 0.1 mM RNA.

For test [20], the system named is 18GAAA-D1 A11U (RNA, riboswitch) GGCUUCAACAUCCCCGUAGGUGGGGACGAAAGUCAGCGCACCUACUGGAGCC
Description: ITC. Conditions: 50 mM NaCl, 10 mM MgCl2; 50 mM HEPES pH 7.0, 25 °C (Figure S7 legend: 20 °C), apparent.

In test [21] the test system is 17delU1A-D1 (NAD+ riboswitch domain 1) (RNA, riboswitch) GGCGCAACAUCCCCGCCGGUUGGGCGCAUUGCACUCCGCGCAGUGAACCGGCUGCGCC
Nature of the test: X-ray crystallography, 2.80 Å. Conditions: Mg2+; co-crystallised with U1A protein.

In test [22] the test system is 18GAAA-D1 A10C (RNA, riboswitch) GGCUUCAACCACCCCGUAGGUGGGGACGAAAGUCAGCGCACCUACUGGAGCC
Description: ITC. Conditions: 50 mM NaCl, 10 mM MgCl2; 50 mM HEPES pH 7.0, 25 °C; 2 mM ligand stock titrated into 0.1 mM RNA.

Test [23] concerns A11Ap domain 1 (RNA, riboswitch, 2-aminopurine at 11) GGCUUCAACAACCCCGUAGGUGGGGACGAAAGUCAGCGCACCUACUGGAGCC
Nature of the test: 2-aminopurine fluorescence, real time. The conditions noted are these: 100 mM KCl, 50 mM MgCl2; 50 mM KMOPS pH 7.5, 20 °C, 0.5 μM RNA, 0.3 mM ligand.

Take `Nc1ncnc2c1ncn2[C@@H]1O[C@H](COP(=O)(O)OP(=O)(O)O)[C@@H](O)[C@H]1O`: in test [1], the Kd amounted to 95.3 ± 0.3 µM. The binding entry in [2] was “yes”. Moreover, the figures for the “KD^ADP” value in [3] and in test [4] were 3400 ± 500 µM and 94 ± 3 µM, respectively.

Turning to `Nc1ncnc2c1ncn2[C@@H]1O[C@H](COP(=O)(O)OP(=O)(O)OP(=O)(O)O)[C@@H](O)[C@H]1O`, the Kd in [1] is 90.2 ± 8.6 µM.

On to `NC(=O)C1=CN([C@@H]2O[C@H](COP(=O)(O)OP(=O)(O)OC[C@H]3O[C@@H](n4cnc5c(N)ncnc54)[C@H](O)[C@@H]3O)[C@@H](O)[C@H]2O)C=CC1`, for which the Kd in test [1] came out at 305 ± 46.4 µM.

Turning to `NC(=O)c1ccc[n+]([C@@H]2O[C@H](COP(=O)([O-])O)[C@@H](O)[C@H]2O)c1`, the binding entry in test [1] (50 mM HEPES pH 7.0, 25 °C, 2 mM ligand stock titrated into 0.1 mM RNA) is “no”.

For the compound `NC(=O)c1ccc[n+]([C@@H]2O[C@H](COP(=O)(O)OP(=O)(O)OC[C@H]3O[C@@H](n4cnc5c(N)ncnc54)[C@H](O)[C@@H]3O)[C@@H](O)[C@H]2O)c1`, the binding entry in test [5] is on record as “no”; in [6], “no”; in [7], “no”; in test [8] it was “no”; in [9] it was “no”; in [2] it was “yes”. Moreover, the binding entry in test [10] was “no”; in test [11] it was “no”; in test [12] it was “no”; in [13], “no”; in test [14] it was “yes”; in test [15], “no”. In addition, the binding result in test [16] is “no”; in [17], “no”; in [18] it was “no”; in test [19] it was “no”; in test [21], “yes”; in test [22], “no”. For the same compound, the binding result in test [23] is on record as “yes”. The Kd was found to be 127 ± 9.5 µM in test [1] and 111 ± 24.6 µM in test [20].
